Values of other authors in US20120021048A1, “Combination Dosage Compositions Comprising a Cholesterol-Lowering Agent, a Renin-Angiotensin System Inhibitor, an Antioxidant Agent and an Antiplatelet Agent for Treatment and Prevention of Cardiovascular Disease” (Nucitec S.A. de C.V., priority 2010, published 2012).
Read-outs that look alike come from different tables or passages of the source.

Columns and labels:
[1] = expected value, single agent at polypill dose, cited from earlier work
[2] = expected value; doses of polypill (atorvastatin 20 mg, lycopene 30 mg); cited from earlier work
[3] = in vivo pure lycopene supplementation; cited from earlier work
[4] = system: macrophages; details: lycopene added to macrophages in cell culture; cited from earlier work

| SMILES | % reduction in risk of Ischaemic heart disease [1] [%] | % reduction in risk of Ischaemic heart disease ([1]; listed as acetylsalicylic acid) | Reduction in concentration (LDL-cholesterol) [2] [mg/dL] | % reduction in risk of Ischaemic heart disease ([1]; listed as atorvastatin) | reduction of plasma LDL cholesterol concentration [3] [%] | suppression of cellular cholesterol synthesis [4] |
| --- | --- | --- | --- | --- | --- | --- |
| CC(=O)Oc1ccccc1C(=O)O [Acetylsalicylic Acid] | 32 | about 32% | – | – | – | – |
| CC(C)c1c(C(=O)Nc2ccccc2)c(-c2ccccc2)c(-c2ccc(F)cc2)n1CC[C@@H](O)C[C@@H](O)CC(=O)O [Atorvastatin] | 61 | – | 70 | about 61% | – | – |
| CC(C)=CCC/C(C)=C/C=C/C(C)=C/C=C/C(C)=C/C=C/C=C(C)/C=C/C=C(C)/C=C/C=C(\C)CCC=C(C)C [Lycopene] | ~20 | – | 14 to 20 | – | 14 | approximately 40% |
| CCOC(=O)[C@H](CCc1ccccc1)N[C@@H](C)C(=O)N1[C@H](C(=O)O)C[C@@H]2CCC[C@@H]21 [Ramipril] | ~25 | – | – | – | – | – |
